{
  "source": "patent US4152436A",
  "about": "“Acylated pentadienone hydrazone, method for preparing the same, and use as fire ant control agents” (American Cyanamid Company, priority 1978, dated 1979)",
  "key": {"[1]": {"assay": "Solubility in soybean oil", "type": "physicochemical", "excerpt": "Determination of the Solubility of the Compounds of the Invention in Soybean Oil\nThe sample of the compound is then reweighed, the difference between the initial and final weights corresponding to the weight of the compound in solution."}, "[2]": {"system": "Southern Armyworm [Spodoptera eridania (Cramer)]", "assay": "whole plant or invertebrate", "type": "in vivo", "conditions": "for mortality at 100 ppm / mortality at 1000 ppm / mortality at 10 ppm: 48 h, read-out: % kill, Southern Armyworm 3rd Instar; for pest or weed control at 1000 µg/mL: 168 h, second leaf, 7 days from original treatment, read-out: % kill, Southern Armyworm 3rd Instar, 7 days (residual activity)", "procedure": "Southern Armyworm [Spodoptera eridania ([…] bean plant with just the primary leaves expanded to 7.6 to 10 cm is dipped for 3 seconds with agitation in a 1000 ppm solution and set in a hood to dry. […] The dish is covered and held at 26.7° C. After 2 days mortality counts and estimates of the amount of feeding are made. Compounds showing partial kill and/or inhibition of feeding are held for an extra day for further observations. All compounds showing activity as defined above are retested, using the second leaf on the bean plant, after an interval of 7 days from original treatment, as an assay of residual activity. Compounds rated active (8 or 9) are further tested at reduced concentrations in 50% acetone:50% water."}, "[3]": {"system": "Tobacco Budworm [Heliothis virescens (Fabricius)]", "assay": "Insecticide test, tobacco budworm 1st instar (eggs / newly hatched larvae on dipped cotton leaf)", "type": "in vivo", "conditions": "72 h, read-out: % kill, Tobacco Budworm 1st Instar", "procedure": "Tobacco Budworm [Heliothis virescens (Fabricius)]\nA cotton plant with 2 true leaves expanded is dipped for 3 seconds with agitation in a 300 ppm solution. A 1.25 to 2 cm square of cheesecloth with about 50 to 100 budworm eggs 0-24 hours old is also dipped in the test solution and placed on one leaf to dry. The leaf with the treated budworm eggs is removed from the plant and placed in a 236.6 ml (8-oz) Dixie cup with a wet 5 cm piece of dental wick and covered with a lid. The other leaf is placed in a similar cup with a wick and a piece of cheesecloth infested with 50-100 newly hatched larvae is added before covering the cup with a lid. After 3 days at 26.7° C., observations of egg hatch are made as well as kill of newly hatched larvae, any inhibition of feeding, or interference of any sort with normal development.\n(§1) Compounds rated active (8 or 9) are further tested at reduced concentrations in 50% acetone:50% water."}, "[4]": {"system": "Cabbage Looper [Trichoplusia ni (Hubner)]", "assay": "Insecticide test, cabbage looper 3rd instar", "type": "in vivo", "conditions": "48 h, 2 days, 26.7° C., read-out: % kill, Cabbage Looper 3rd Instar", "procedure": "Cabbage Looper [Trichoplusia ni (Hubner)]\nA primary leaf of a cotton plant is dipped in the test solution and agitated for 3 seconds. It is then set in a hood to dry. Following this, the leaf is placed in a 10 cm petri dish containing a moist filter paper at the bottom and 10 third-instar loopers. The dish is covered and held at 26.7° C. After 2 days, mortality counts and estimates of feeding damage are recorded. Those materials showing partial kill and/or inhibition of feeding are held for another day for further observations.\nas §1"}, "[5]": {"system": "Tobacco Budworm [Heliothis virescens (Fabricius)]", "assay": "whole plant or invertebrate", "type": "in vivo", "conditions": "72 h, read-out: % kill, Tobacco Budworm 3rd Instar", "procedure": "Third Instar Three cotton plants with just expanded cotyledons are dipped in a 1000 ppm solution, and placed in a hood to dry. When dry, each cotyledon is cut in half and each half is placed in one of ten 29.6 ml plastic medicine cups containing a 1.25 cm dental wick saturated with water, and one third instar budworm larva is added. The cup is capped and held for 3 days at 26.7° C., after which mortality counts are made. Compounds rated active (8 or 9) are further tested at reduced concentrations in 50% acetone:50% water."}},
  "data": [
    {"smiles": "CCCCCCCCCCCCCCCC(=O)N1CC(C)(C)CN=C1NN=C(C=Cc1ccc(C(F)(F)F)cc1)C=Cc1ccc(C(F)(F)F)cc1", "note": "[drawing 33]", "values": [
      {"measurement": "Solubility in Soybean oil, In % of w/w", "setting": "[1]", "value": "2.0 % of w/w"},
      {"measurement": "Solubility in Soybean oil, In g/g of oil", "setting": "[1]", "value": "0.02 g/g of oil"}
    ]},
    {"smiles": "CC(=O)N1CC(C)(C)CN=C1NN=C(C=Cc1ccc(C(F)(F)F)cc1)C=Cc1ccc(C(F)(F)F)cc1", "note": "[drawing 31]", "values": [
      {"measurement": "Solubility in Soybean oil, In % of w/w", "setting": "[1]", "value": "0.3 % of w/w"},
      {"measurement": "Solubility in Soybean oil, In g/g of oil", "setting": "[1]", "value": "0.003 g/g of oil"}
    ]},
    {"smiles": "CC1(C)CN=C(NN=C(C=Cc2ccc(C(F)(F)F)cc2)C=Cc2ccc(C(F)(F)F)cc2)N(C(=O)c2ccccc2)C1", "note": "[drawing 32]", "values": [
      {"measurement": "Solubility in Soybean oil, In % of w/w", "setting": "[1]", "value": "0.4 % of w/w"},
      {"measurement": "Solubility in Soybean oil, In g/g of oil", "setting": "[1]", "value": "0.004 g/g of oil"}
    ]},
    {"smiles": "CC(=O)N1CC(C)(C)CN=C1NN=C(C=Cc1ccc(Cl)cc1)C=Cc1ccc(Cl)cc1", "note": "[R1=Cl, R3=CH3]", "values": [
      {"measurement": "mortality at 100 ppm", "setting": "[2]", "value": 100, "unit": "%"},
      {"measurement": "mortality at 1000 ppm", "setting": "[2]", "value": 100, "unit": "%"},
      {"measurement": "mortality at 10 ppm", "setting": "[3]", "value": "0 to 40", "unit": "%"},
      {"measurement": "mortality at 100 ppm", "setting": "[3]", "value": 100, "unit": "%"},
      {"measurement": "mortality at 10 ppm", "setting": "[4]", "value": 0, "unit": "%"},
      {"measurement": "mortality at 100 ppm", "setting": "[4]", "value": 100, "unit": "%"},
      {"measurement": "mortality at 1000 ppm", "setting": "[4]", "value": 100, "unit": "%"},
      {"measurement": "mortality at 10 ppm", "setting": "[5]", "value": 0, "unit": "%"},
      {"measurement": "mortality at 100 ppm", "setting": "[5]", "value": 100, "unit": "%"},
      {"measurement": "mortality at 1000 ppm", "setting": "[5]", "value": 100, "unit": "%"}
    ]},
    {"smiles": "CC1(C)CN=C(NN=C(C=Cc2ccc(C(F)(F)F)cc2)C=Cc2ccc(C(F)(F)F)cc2)NC1", "values": [
      {"measurement": "Solubility in Soybean oil, In % of w/w", "setting": "[1]", "value": "0.1 % of w/w"},
      {"measurement": "Solubility in Soybean oil, In g/g of oil", "setting": "[1]", "value": "0.001 g/g of oil"}
    ]},
    {"smiles": "CC1(C)CN=C(NN=C(C=Cc2ccc(Cl)cc2)C=Cc2ccc(Cl)cc2)N(C(=O)c2ccccc2)C1", "values": [
      {"measurement": "mortality at 10 ppm", "setting": "[2]", "value": 30, "unit": "%"},
      {"measurement": "mortality at 100 ppm", "setting": "[2]", "value": 100, "unit": "%"},
      {"measurement": "mortality at 1000 ppm", "setting": "[2]", "value": 100, "unit": "%"},
      {"measurement": "pest or weed control at 1000 µg/mL", "setting": "[2]", "value": 100, "unit": "%"},
      {"measurement": "mortality at 10 ppm", "setting": "[3]", "value": "0 to 40", "unit": "%"},
      {"measurement": "mortality at 100 ppm", "setting": "[3]", "value": "41 to 60", "unit": "%"},
      {"measurement": "mortality at 10 ppm", "setting": "[4]", "value": 0, "unit": "%"},
      {"measurement": "mortality at 100 ppm", "setting": "[4]", "value": 100, "unit": "%"},
      {"measurement": "mortality at 1000 ppm", "setting": "[4]", "value": 100, "unit": "%"},
      {"measurement": "mortality at 100 ppm", "setting": "[5]", "value": 0, "unit": "%"},
      {"measurement": "mortality at 1000 ppm", "setting": "[5]", "value": 100, "unit": "%"}
    ]},
    {"smiles": "CC1(C)CN=C(NN=C(C=Cc2ccc(C(F)(F)F)cc2)C=Cc2ccc(C(F)(F)F)cc2)N(C(=O)c2ccccc2)C1", "note": "[drawing 35]", "values": [
      {"measurement": "mortality at 10 ppm", "setting": "[2]", "value": 0, "unit": "%"},
      {"measurement": "mortality at 100 ppm", "setting": "[2]", "value": 100, "unit": "%"},
      {"measurement": "mortality at 1000 ppm", "setting": "[2]", "value": 100, "unit": "%"},
      {"measurement": "pest or weed control at 1000 µg/mL", "setting": "[2]", "value": 100, "unit": "%"},
      {"measurement": "mortality at 100 ppm", "setting": "[3]", "value": "0 to 40", "unit": "%"},
      {"measurement": "mortality at 10 ppm", "setting": "[4]", "value": 0, "unit": "%"},
      {"measurement": "mortality at 100 ppm", "setting": "[4]", "value": 100, "unit": "%"},
      {"measurement": "mortality at 1000 ppm", "setting": "[4]", "value": 100, "unit": "%"},
      {"measurement": "mortality at 10 ppm", "setting": "[5]", "value": 0, "unit": "%"},
      {"measurement": "mortality at 100 ppm", "setting": "[5]", "value": 100, "unit": "%"},
      {"measurement": "mortality at 1000 ppm", "setting": "[5]", "value": 100, "unit": "%"}
    ]}
  ]
}
